What was measured:
[1] = Iodine color number according to DIN 6162:2014-09; type: physicochemical
[2] = Physical stability; visual assessment (color, turbidity, phase separation); type: physicochemical; parameters: key: ++: no discernible change with respect to color, turbidity or phase separation; +: marginal change in color number, somewhat increased Tyndall effect but no turbidity; 0: easily discernible increase in color number and moderate turbidity−no phase separation; −: turbidity and change in color number readily discernible by visual assessment; −−: strong color change with strong turbidity and incipient phase separation
Text: Physical stability; visual assessment according to:
++=no discernible change with respect to color, turbidity or phase separation; +=marginal change in color number, somewhat increased Tyndall effect but no turbidity; 0=easily discernible increase in color number and moderate turbidity−no phase separation; − turbidity and change in color number readily discernible by visual assessment; −− strong color change with strong turbidity and incipient phase separation.
Before storage, all batches could be rated ++ (no turbidity or phase separation; no influence of the biocide on the color number of the product).

[3] = test system: Yeast: Candida albicans, Candida valida, Rhodotorula rura, Saccharomyces cerevisiae; experiment: Preservation test with periodic inoculation, yeast assessment; type: cell-based; conditions: for 60 d 40° C., yeast assess., 4th inoculation: sample stored 60 d at 40° C.; for Start sample measurement, yeast assess., 4th inoculation: freshly formulated
Experimental: (§1) Microbiological results at the start (freshly formulated, i.e. 4-week test series is started immediately) and after 60 days of storage at 40° C. (i.e. the 4-week microbial testing is started with the sample stored at 40° C. for 60 days)
(§2) The test described below is carried out in order to ascertain the preserving effect of chemical preservatives in aqueous products and systems, the principle of the described method reflecting the efficacy of chemical preservatives with respect to pot-maintenance of aqueous products/systems under conditions corresponding to the use of laundry products/consumer products by the consumer. For this purpose, the preservatives to be tested are added in those concentrations which correspond to from the literature or to the manufacturer data from the suppliers (e.g. Thor, Speyer). In said test, our orientation was toward the upper range, which, with the exception of VI-containing polymers, had always led to excellent results in the case of aqueous polymers for laundry.
(§3) A constant microorganism load is achieved by periodic inoculation of the test batches. Before the swabs of each batch made respectively immediately in parallel with the inoculation. The assessment is made on the basis of the microbial growth of the streaks.
(§4) When carrying out said tests, 25 g of the polymer to be tested are weighed in each case into a vessel with a screw cap. The preservatives to be tested are each added in separate batches according to the specified use concentrations. An unpreserved product sample was used in each case for the growth control. Two days after the addition of the preservative, the samples are infected with 0.5 ml of inoculum (2% w/w). The titer of this inoculant solution is 10^9 organisms per ml. The following microorganisms are the test organisms for the preservation test:
(§5) • Escherichia coli • Staphylococcus aureus • Pseudomonas aeruginosa • Pseudomonas putida • Burkholderia cepacia • Alcaligenes faecalis Yeast: • Candida albicans • Candida valida • Rhodotorula rura • Saccharomyces cerevisiae
(§6) The test batches are inoculated four times altogether and once a week and are streaked on an agar plate once a week; the first streaking is done immediately before the new inoculation. Microbial growth on the agar surface is assessed after a three-day incubation at 25° C. As a precaution, negative swabs are additionally observed for a further three days and reassessed. The preserving effect is effected in a semiquantitative method via the growth of the individual streaks in accordance with the assessment from − via + to +++. The preservative result is repeatedly demonstrably robust, i.e. +++− defines the microbial growth.
(§7) When assessing the results, it is assumed that a preservative can be regarded as good if there are batches under the above-described laboratory conditions for a period of four weeks without microbial invasion of the sample, and that, even after the fourth inoculation, no microbial attacks occur growth can be identified. • −−: no growth • −: slight growth, max. 100 colonies • 0: moderate growth, max. 400 colonies • +: uniform growth with individual colonies still easily identifiable • ++: strong growth; too many colonies to be counted, already some extensive growth

[4] = test system: Bacteria: Escherichia coli, Staphylococcus aureus, Pseudomonas aeruginosa, Pseudomonas putida, Burkholderia cepacia, Alcaligenes faecalis; experiment: Preservation test with periodic inoculation, bacteria assessment; type: cell-based; conditions: for Start sample measurement, bact. assess., 4th inoculation: freshly formulated; for 60 d 40° C., bact. assess., 4th inoculation: sample stored 60 d at 40° C.
Experimental: as §1, §2, §3, §4, §5, §6, §7

[5] = Polymer P5 (HP56) with stabilizer

## O=c1[nH]sc2ccccc12 [BIT, 1,2-benzisothiazolin-3-one]
[1]; Polymer P1 with stabilizer
  Iodine color number, 60 d 40° C.: 6.0
  Iodine color number, start: 2.6
[1]; Polymer P2 with stabilizer
  Iodine color number, 60 d 40° C.: 7.1
  Iodine color number, start: 2.9
[1]; Polymer P3 with stabilizer
  Iodine color number, 60 d 40° C.: 9.3
  Iodine color number, start: 3.4
[1]; Polymer P4 with stabilizer
  Iodine color number, 60 d 40° C.: 9.2
  Iodine color number, start: 3.4
[1]; [5]
  Iodine color number, 60 d 40° C.: 10.4
  Iodine color number, start: 3.6
[1]; Polymer P6 with stabilizer
  Iodine color number, 60 d 40° C.: 10.0
  Iodine color number, start: 3.6
[1]; Polymer P7 with stabilizer
  Iodine color number, 60 d 40° C.: 10.0
  Iodine color number, start: 3.6
[1]; Polymer P8 with stabilizer
  Iodine color number, 60 d 40° C.: 10.4
  Iodine color number, start: 3.4
[1]; Polymer P9 with stabilizer
  Iodine color number, 60 d 40° C.: 12.8
  Iodine color number, start: 4.0
[2]; Polymer P1 with stabilizer
  Physical stability, 60 d 40° C.*: −
[2]; Polymer P2 with stabilizer
  Physical stability, 60 d 40° C.*: −
[2]; Polymer P3 with stabilizer
  Physical stability, 60 d 40° C.*: −
[2]; Polymer P4 with stabilizer
  Physical stability, 60 d 40° C.*: −
[2]; [5]
  Physical stability, 60 d 40° C.*: −
[2]; Polymer P6 with stabilizer
  Physical stability, 60 d 40° C.*: −
[2]; Polymer P7 with stabilizer
  Physical stability, 60 d 40° C.*: −
[2]; Polymer P8 with stabilizer
  Physical stability, 60 d 40° C.*: −−
[2]; Polymer P9 with stabilizer
  Physical stability, 60 d 40° C.*: −
[3]; Polymer P1
  60 d 40° C., yeast assess., 4th inoculation: +
[3]; Polymer P2
  60 d 40° C., yeast assess., 4th inoculation: ++
[3]; Polymer P3
  Start sample measurement, yeast assess., 4th inoculation: − (slight growth, max. 100 colonies)
  60 d 40° C., yeast assess., 4th inoculation: ++
[3]; Polymer P4
  Start sample measurement, yeast assess., 4th inoculation: − (slight growth, max. 100 colonies)
  60 d 40° C., yeast assess., 4th inoculation: ++
[3]; Polymer P5 (HP56)
  Start sample measurement, yeast assess., 4th inoculation: − (slight growth, max. 100 colonies)
  60 d 40° C., yeast assess., 4th inoculation: ++
[3]; Polymer P6
  Start sample measurement, yeast assess., 4th inoculation: − (slight growth, max. 100 colonies)
  60 d 40° C., yeast assess., 4th inoculation: ++
[3]; Polymer P7
  Start sample measurement, yeast assess., 4th inoculation: − (slight growth, max. 100 colonies)
  60 d 40° C., yeast assess., 4th inoculation: ++
[3]; Polymer P8
  60 d 40° C., yeast assess., 4th inoculation: +
[3]; Polymer P9
  Start sample measurement, yeast assess., 4th inoculation: − (slight growth, max. 100 colonies)
  60 d 40° C., yeast assess., 4th inoculation: ++
[4]; Polymer P1
  Start sample measurement, bact. assess., 4th inoculation: − (slight growth, max. 100 colonies)
  60 d 40° C., bact. assess., 4th inoculation: +
[4]; Polymer P2
  Start sample measurement, bact. assess., 4th inoculation: − (slight growth, max. 100 colonies)
  60 d 40° C., bact. assess., 4th inoculation: ++
[4]; Polymer P3
  Start sample measurement, bact. assess., 4th inoculation: − (slight growth, max. 100 colonies)
  60 d 40° C., bact. assess., 4th inoculation: ++
[4]; Polymer P4
  60 d 40° C., bact. assess., 4th inoculation: +
[4]; Polymer P5 (HP56)
  60 d 40° C., bact. assess., 4th inoculation: ++
[4]; Polymer P6
  60 d 40° C., bact. assess., 4th inoculation: +
[4]; Polymer P7
  60 d 40° C., bact. assess., 4th inoculation: ++
[4]; Polymer P8
  Start sample measurement, bact. assess., 4th inoculation: − (slight growth, max. 100 colonies)
  60 d 40° C., bact. assess., 4th inoculation: +
[4]; Polymer P9
  60 d 40° C., bact. assess., 4th inoculation: ++

— patent US12281225B2, “Process for preparing stable polymers containing vinylimidazole” (BASF SE, priority 2018, dated 2025)
